Source: the NIST ThermoML archive (doi:10.1021/je020138s)
Numbers after ± are expanded uncertainties.

What was measured:
[1] = xn = mol fraction of the nth substance listed; settings: 308.15 K, 101 kPa, Liquid
[2] = excess molar enthalpy (molar enthalpy of mixing); xn = mol fraction of the nth substance listed; settings: 101 kPa, Liquid, Calvet calorimetry

CCCCOC(=O)CCC [butyl butanoate] + CCCCCCCCCCCC
[1]
Settings | excess molar volume [m3/mol]
x1 = 0.086 | 2.25e-07 ± 1.6e-08
x1 = 0.1642 | 4.085e-07 ± 1.7e-08
x1 = 0.2326 | 4.99e-07 ± 1.8e-08
x1 = 0.3151 | 5.957e-07 ± 1.8e-08
x1 = 0.4238 | 6.386e-07 ± 1.9e-08
x1 = 0.4435 | 6.409e-07 ± 1.9e-08
x1 = 0.5057 | 6.525e-07 ± 1.9e-08
x1 = 0.5458 | 6.501e-07 ± 1.9e-08
x1 = 0.6564 | 5.883e-07 ± 1.8e-08
x1 = 0.6617 | 5.83e-07 ± 1.8e-08
x1 = 0.6962 | 5.604e-07 ± 1.8e-08
x1 = 0.7365 | 5.311e-07 ± 1.8e-08
x1 = 0.7625 | 4.759e-07 ± 1.8e-08
x1 = 0.7821 | 4.581e-07 ± 1.8e-08
x1 = 0.8186 | 4.073e-07 ± 1.7e-08
x1 = 0.8623 | 3.308e-07 ± 1.7e-08
x1 = 0.9593 | 1.15e-07 ± 1.6e-08

[2], 308 K
Settings | excess molar enthalpy [kJ/mol]
x1 = 0.0894 | 0.295 ± 0.004
x1 = 0.1261 | 0.392 ± 0.005
x1 = 0.1734 | 0.516 ± 0.007
x1 = 0.205 | 0.573 ± 0.007
x1 = 0.2668 | 0.689 ± 0.009
x1 = 0.3014 | 0.736 ± 0.009
x1 = 0.326 | 0.764 ± 0.01
x1 = 0.3509 | 0.787 ± 0.01
x1 = 0.4179 | 0.851 ± 0.011
x1 = 0.4544 | 0.869 ± 0.011
x1 = 0.517 | 0.866 ± 0.011
x1 = 0.5526 | 0.864 ± 0.011
x1 = 0.6779 | 0.777 ± 0.01
x1 = 0.7202 | 0.727 ± 0.009
x1 = 0.8233 | 0.537 ± 0.007
x1 = 0.8287 | 0.525 ± 0.007
x1 = 0.9006 | 0.338 ± 0.005
x1 = 0.9307 | 0.24 ± 0.003

CCCCCCCCO [octan-1-ol] + CCCCCCCCCCCC
[2], 308.15 K
Settings | excess molar enthalpy [kJ/mol]
x1 = 0.1345 | 0.721 ± 0.009
x1 = 0.1898 | 0.782 ± 0.01
x1 = 0.2658 | 0.828 ± 0.011
x1 = 0.3122 | 0.836 ± 0.011
x1 = 0.4077 | 0.831 ± 0.011
x1 = 0.4433 | 0.821 ± 0.01
x1 = 0.4591 | 0.812 ± 0.01
x1 = 0.5302 | 0.777 ± 0.01
x1 = 0.5667 | 0.749 ± 0.01
x1 = 0.6587 | 0.663 ± 0.009
x1 = 0.6595 | 0.668 ± 0.009
x1 = 0.7509 | 0.529 ± 0.007
x1 = 0.7661 | 0.504 ± 0.007
x1 = 0.8263 | 0.39 ± 0.005
x1 = 0.8566 | 0.327 ± 0.004
x1 = 0.8983 | 0.24 ± 0.003
x1 = 0.9353 | 0.153 ± 0.002
x1 = 0.97 | 0.071 ± 0.002
